Measurements as given in patent US20100056477A1, “FUNGICIDAL MIXTURES OF AMIDINYLPHENYL COMPOUNDS” (Bayer CropScience AG, priority 2006, published 2010).

Assays:
Botrytis cinerea = test: Botrytis test (beans)/protective; format: in vivo; settings: single active compound, protective, evaluated 2 days after inoculation
Procedure: Solvent: 24.5 parts by weight of acetone • 24.5 parts by weight of dimethylacetamide
(§1) Emulsifier: 1 part by weight of alkylaryl polyglycol ether
To produce a suitable preparation of active compound, 1 part by weight of active compound is mixed with the stated amounts of solvent and emulsifier, and the concentrate is diluted with water to the desired concentration.
To test for protective activity, young plants are sprayed with the preparation of active compound. After the spray coating has dried on, 2 small pieces of agar covered with growth of Botrytis cinerea are placed on each leaf. The inoculated plants are placed in a darkened chamber at 20° C. and a relative atmospheric humidity of 100%.
2 days after the inoculation, the size of the lesions on the leaves is evaluated. 0% means an efficacy which corresponds to that of the control, while an efficacy of 100% means that no disease is observed.

Leptosphaeria nodorum = Leptosphaeria nodorum test (wheat)/protective; format: in vivo; settings: single active compound, 125 ppm, protective, evaluated 10 days after inoculation
Procedure: (§2) Solvent: 50 parts by weight of n,n-dimethylacetamid
as §1
(§3) To produce a suitable preparation of active compound, 1 part by weight of active compound or active compound combination is mixed with the stated amounts of solvent and emulsifier, and the concentrate is diluted with water to the desired concentration.
(§4) To test for protective activity, young plants are sprayed with a preparation of active compound or active compound combination at the stated rate of application. After the spray coating has been dried, the plants are sprayed with a spore suspension of Leptosphaeria nodorum. The plants remain for 48 hours in an incubation cabinet at 20° C. and a relative atmospheric humidity of 100%.
(§5) The plants are placed in a greenhouse at a temperature of approximately 15° C. and a relative atmospheric humidity of approximately 80%.
The test is evaluated 10 days after the inoculation. 0% means an efficacy which corresponds to that of the control, while an efficacy of 100% means that no disease is observed.

Septoria tritici = Septoria tritici test (wheat)/protective; format: in vivo; settings: single active compound, rate of application 125 ppm, protective, evaluated 20 days after inoculation
Procedure: as §2, §1, §3
as §4, with “test the” for “test for”, “of Septoria tritici.” for “of Leptosphaeria nodorum.”, “hours at 20° C. and then 60 hours at 15° C.” for “hours”, “at” for “at 20° C. and”
as §5
The test is evaluated 20 days after inoculation. 0% means an efficacy which corresponds to that of the control, while an efficacy of 100% means that no disease is observed.

Structure (SMILES)	Efficacy in % (Botrytis cinerea; 10 ppm)	Efficacy in % (Botrytis cinerea; 100 ppm)	Efficacy in % a.e. (actual efficacy) (Leptosphaeria nodorum)	Efficacy in % a.e. (actual efficacy) (Septoria tritici)	also measured
Cc1cc(Br)c(C=O)cc1[N+](=O)[O-] [2-bromo-4-methyl-5-nitrobenzaldehyd, 2-bromo-4-methyl-5-nitrobenzaldehyde]	–	–	–	–	chromatographic logP (LogP (HCOOH); HCOOH): 2.61
Cc1cc(OCCC[Si](C)(C)C)c(C(F)F)cc1N [5-(difluoromethyl)-2-methyl-4-[3-(trimethylsilyl)propoxy]aniline]	–	–	–	–	chromatographic logP (LogP (HCOOH); HCOOH (formic acid)): 3.8
CCN(C)/C=N/c1cc(C(F)(F)F)c(OCCC[Si](C)(C)C)cc1C [(1-37), N-[5-trifluoro-methyl-2-methyl-4-[3-(trimethylsilyl)propoxyl]phenyl]-N-ethyl-N-methyl-methanimidamide]	0%	23%	92%	30%	–
CCN(C)/C=N/c1cc(C(F)F)c(OCCC[Si](C)(C)C)cc1C [(1-42), N′-{5-(difluoromethyl)-2-methyl-4-[3-(trimethylsilyl)propoxy]phenyl}-N-ethyl-N-methylimidoformamide]	0%	29%	–	–	chromatographic logP (LogP (HCOOH); HCOOH (formic acid)): 2.81
Cn1cc(C(=O)Nc2ccccc2C2CC2C2CC2)c(C(F)F)n1 (centres unmarked) [(b-1), reference compound]	–	38%	–	10%	–
Cn1cc(C(=O)Nc2ccccc2-c2ccc(C#CC(C)(C)C)cc2)c(C(F)F)n1 [(b-5), reference compound]	80%	–	67%	–	–
CC(C)(C)C#Cc1ccc(-c2ccccc2NC(=O)c2cccnc2Cl)cc1 [(b-7)]	–	–	67%	–	–
CC(C)[C@@H]1C2CCC1c1c(NC(=O)c3cn(C)nc3C(F)F)cccc12 (some centres unmarked) [(b-17)]	–	–	–	30%	–
N#Cc1c[nH]cc1-c1cccc2c1OC(F)(F)O2 [(b-19)]	–	–	–	30%	–
Cc1cc(OCCC[Si](C)(C)C)c(C(F)F)cc1[N+](=O)[O-] [{3-[2-(difluoromethyl)-5-methyl-4-nitrophenoxy]propyl}(trimethyl)silane]	–	–	–	–	chromatographic logP (LogP (HCOOH); HCOOH): 5.44
